Several values for one entry are separate records, joined by “and”; a condition that tells them apart may be missing. Equal values may be shown once.
Tests used:
B16-F1 TRCs [1] = test: Colony growth of B16-F1 TRCs in 90-Pa 3D soft fibrin gels; type: cell-based, murine; conditions: 10 µM added day 3, washed out day 4, 3 days after washout
[2] = system: TRCs of A2780, A549, MCF-7, MDA-MB-435s, A375; test: Colony growth of TRCs of five human cancer cell lines (summary statements); type: cell-based
Experimental: Salmon fibrinogen and thrombin were purchased from Reagent Proteins (CA, USA). 3D fibrin gels were prepared as described previously[5],[6]. In brief, fibrinogen was diluted into 2 mg mL^−1 with T7 buffer (pH 7.4, 50 mM Tris, 150 mM NaCl). Cells were detached from 2D rigid dishes and cell density was adjusted to 10^4 cells per mL. Fibrinogen and cell solution mixture were made by mixing the same volume of fibrinogen solution and cell solution, resulting in 1 mg mL^−1 fibrinogen and 5000 cells per mL in the mixture fibrin gels. A volume of 50 μL cell/fibrinogen mixture was seeded into each well of 96-well plate and mixed well with pre-added 1 μL thrombin (100 U mL^−1). The cell culture plate was then incubated in 37 °C cell culture incubator for 10 min. Finally, 200 μL of DMEM medium containing 10% FBS and antibiotics was added.
Control B16-F1, A2780, A549, MCF-7, MDA-MB-435s, and A375 cells were cultured in 90-Pa fibrin gels to form round colonies and then treated with 0.1, 1, and 10 μM WYC-209, WYC-209A, and WYC-209B or 0.1% DMSO on day 3, which was washed out with pre-warmed PBS on day 4 with fresh medium, and then kept culturing till day 7 or day 9.

[3] = system: B16-F1 TRCs lung metastases; test: Lung metastasis of B16-F1 TRCs in immune-competent mice; type: in vivo, C57BL/6 mice; conditions: for Metastases in H&E-stained organ sections: 0.022 mg kg-1; for Mice with lung metastases: 8 mice per group, day 30
Excerpt: Four- to six-week-old female and male C57BL/6 mice were used in mice experiment. Mice were randomized into different groups. In metastasis experiment, B16-F1 cell spheroids were selected from 3D 90-Pa fibrin gels and pipetted to single cells. These TRCs were harvested and the cell number was counted under microscopy. The cells were then suspended in PBS with appropriate cell density. Thirty thousand TRCs were intravenously injected into the tail vein of each wild-type C57BL/6 mouse. Five days later, inoculated mice were intravenous implanted with 0.022 mg kg^−1 WYC-209, 0.22 mg kg^−1 WYC-209, or 0.1% DMSO every two days. The mice were euthanized and examined for lung tumor formation at day 30. In treated TRCs injected in vivo experiments, B16-F1 cells were seeded into 3D 90-Pa fibrin gels and treated with 10 µM WYC-209 or 0.1% DMSO on day 3, then isolated treated TRCs colonies on day 5 and pipetted into single cell. 30,000 of TRCs were intravenously injected into the tail vein of each wild-type C57BL/6 mouse. No blinding was performed in the mice experiments.
Lung, liver, spleen, bone, stomach, and brain of C57BL/6 mice were fixed by 4% paraformaldehyde then were embedded in paraffin and cut to ~4 µm thick sections by Thermo FINESSE 325. Organ sections were stained by H&E and slides were evaluated for tumor formation by a veterinary pathologist blinded to sample identity.

B16-F1 TRCs [4] = test: Cell cycle analysis (BrdU flow cytometry), S phase of TRCs; type: cell-based, murine; conditions: 10 μM, 24 hours
Experimental: For Annexin-V and PI staining to quantify cell apoptosis, treated TRCs were isolated from 3D fibrin gel by using 5 mg mL^−1 Dispase II (Sigma), cells were labeled with FITC-conjugated Annexin-V and PI according to the manufacturer’s instruction (Biolegend). Data were acquired on a BD Cantoll (BD biosciences) and analyzed with FlowJo software. For BrdU staining to quantify cell proliferation, cells were labeled with FITC-conjugated anti-BrdU antibody according to the manufacturer’s instruction (FITC BrdU Flow Kit, BD Biosciences) and then data were acquired on an Accuri C6 (BD Biosciences) and analyzed with BD Accuri C6 software.
Supplementary Figure 13. WYC-209 blocks S phase of TRCs. Different cancer cell lines cultured in 3D soft fibrin gel on day 0, then treated with 0.1, 1, or 10 μM WYC-209, WYC-209A, WYC-209B on day 4, isolated cells after 24 hours and labeled with FITC-conjugated anti-BrdU antibody for cell cycle analysis, 10 μM ATRA and Tazarotne as positive controls. (a) Representative images of flow cytometry in different conditions. (b) Quantification of S phase ratio in different conditions. Mean ± s.e.m.; n=3 independent experiments; * P<0.05; ** P<0.01; *** P<0.001 (Student’s t-test).
(§1) (1 picture or pasted object on this page, not shown here)

[5] = system: cleaved (active) caspase-3 and PARP; test: Western blotting of cleaved caspase-3 and PARP; type: cell-based, murine; conditions: 10 μM, 24 h
Excerpt: To quantify the expression levels of RARα, RARβ, RARγ, caspase-3, cleaved caspase-3, and cleaved PARP, cells were lysed with RIPA lysis buffer. […] Primary antibodies were detected with mouse anti-Rabbit IgG-HRP (1:1000, Santa Cruz, sc-2357), donkey anti-goat IgG-HRP (1:1000, Santa Cruze, sc-2020), or anti-Mouse IgG-HRP (1:1000, Santa Cruz, sc-2005).
Supplementary Figure 37. WYC-209 induces cleaved caspase-3 and PARP expressions.
(a) Representative images of cleaved PARP and cleaved caspase-3 protein expressions in control B16-F1 cells cultured on 2D rigid dishes and treated 0.1% DMSO, 1 or 10 µM WYC-209, WYC-209A or WYC-209B for 24 h. (b) Representative images of cleaved PARP and cleaved caspase-3 protein expression of control B16-F1 cells seeded in 3D soft fibrin gels for […]
hours. (c, d) Quantification of expression levels of cleaved PARP and cleaved caspase-3 in (a). (e, f) Quantification of expression levels of cleaved PARP and cleaved caspase-3 in (b).
All values are normalized by GAPDH. Mean ± s.e.m.; 3 separate experiments; ns, not […]
as §1

[6] = system: unselected human cancer cells; test: Unselected human cancer cells on 2D rigid dishes; type: cell-based; conditions: 10 μM, 48 hours
Experimental: Supplementary Figure 20. WYC-209 detaches adherent human cancer cells on rigid plastic. (a-e): human melanoma MDA-MB-435s (a), human breast cancer MCF-7 (b), human ovarian cancer A2780 (c), human malignant melanoma A375 (d), and human lung cancer A549 (e) were cultured on rigid plastics and treated with 0.1, 1, or 10 μM WYC-209, WYC-209A, or WYC-209B and cell numbers were measured for 48 hours. Cell nuclei were stained with DAPI. None: medium only; DMSO: medium containing 0.1% DMSO. Cell numbers per view field were quantified. Mean ± s.e.m.; n= 5 samples; 3 separate experiments; *P<0.05; ** P<0.01; *** P<0.001 […]
as §1

[7] = 0.022 mg kg−1 i.v. every two days from day 5 after 30,000 TRCs i.v.
[8] = 0.22 mg kg−1 i.v. every two days from day 5 after 30,000 TRCs i.v.

## CCOC(=O)c1cnc(C#Cc2ccc3c(c2)C(C)(C)CC[S@+]3[O-])nc1 [WYC-209A]
B16-F1 TRCs [1]
  TRC growth after compound washout: failed to resume growing
[2]; pretreated at 10 μM
  Colony growth after washout and re-plating: completely inhibited
[2]; pretreated at 0.1 or 1 μM
  Colony growth after washout and re-plating: partially inhibited
[3]
  Metastases in H&E-stained organ sections: exhibited metastases in the lungs but not in other organs
[3]; [7]
  Mice with lung metastases: three out of eight
[3]; [8]
  Mice with lung metastases: one out of eight
B16-F1 TRCs [4]
  Decrease of S phase of TRCs: completely abolished S phase
[5]
  Cleaved (active) caspase-3 and PARP: increase
[6]
  Growth of unselected human cancer cells on 2D rigid dishes: completely blocked cell growth

## CCOC(=O)c1cnc(C#Cc2ccc3c(c2)C(C)(C)CC[S@@+]3[O-])nc1 [WYC-209B]
B16-F1 TRCs [1]
  TRC growth after compound washout: failed to resume growing
[2]; pretreated at 10 μM
  Colony growth after washout and re-plating: completely inhibited
[2]; pretreated at 0.1 or 1 μM
  Colony growth after washout and re-plating: partially inhibited
[3]
  Metastases in H&E-stained organ sections: exhibited metastases in the lungs but not in other organs
[3]; [7]
  Mice with lung metastases: three out of eight
[3]; [8]
  Mice with lung metastases: one out of eight
B16-F1 TRCs [4]
  Decrease of S phase of TRCs: completely abolished S phase
[5]
  Cleaved (active) caspase-3 and PARP: increase
[6]
  Growth of unselected human cancer cells on 2D rigid dishes: completely blocked cell growth

## CCOC(=O)c1cnc(C#Cc2ccc3c(c2)C(C)(C)CC[S+]3[O-])nc1 (centres unmarked) [WYC-209]
B16-F1 TRCs [1]
  TRC growth after compound washout: failed to resume growing
[2]; Homo sapiens, 0 h, treated on day 0, read-out: IC50 (range over five human TRC types)
  IC50: 100 to 520 nM
[2]; Homo sapiens, 10 μM, read-out: Growth inhibition of all human TRCs
  inhibition at 10 µM: 100%
[2]; pretreated at 10 μM
  Colony growth after washout and re-plating: completely inhibited
[2]; pretreated at 0.1 or 1 μM
  Colony growth after washout and re-plating: partially inhibited
[2]; treated day 3, washed out day 4, 5 days after washout
  TRC growth after drug washout: failed to resume growth
[3]; [7]
  Mice with lung metastases: four out of eight and 4/8
[3]; 0.22 mg kg−1
  Average lung weight versus DMSO group: less
  Lung metastases of melanoma TRCs abrogated: 87.5%
[3]; [8]
  Mice with lung metastases: one out of eight and 1/8
[3]; TRCs pretreated with 10 µM in fibrin gels day 3-5, 30,000 TRCs i.v., 8 mice
  Lung metastases in untreated mice injected with pretreated TRCs: no lung metastases
B16-F1 TRCs [4]
  Decrease of S phase of TRCs: completely abolished S phase
[5]
  Cleaved (active) caspase-3 and PARP: increase
[6]
  Growth of unselected human cancer cells on 2D rigid dishes: completely blocked cell growth
